Tested on: premenopausal HR+/HER2− metastatic breast cancer
Experiment: Kaplan Meier PFS analysis of capecitabine-treated patients by five-gene marker combination
Assay type: in vivo
Protocol: Among 141 premenopausal HR+/HER2− MBC patients, a tumor sample was isolated from a group (n=62) administered with capecitabine, and sequencing was performed on the sample. CancerSCAN™ targeted panel sequencing was performed to detect 375 cancer-related gene variations, and transcriptome analysis was performed to detect overall gene expression patterns.
A univariate Cox proportional hazard model was analyzed for each genetic variation/CNV, the p-value derived by the log-rank test was defined as a p-value cutoff of 0.05 as the criterion for a statistically significant difference, and 30 biomarkers with p-value<0.05 were selected as candidate markers. […] In other words, the description of “NF2+FAT3” includes the case where there exists a mutation in either NF2 or FAT3 gene.

SMILES: CCCCCOC(=O)Nc1nc(=O)n([C@@H]2O[C@H](C)[C@@H](O)[C@H]2O)cc1F [capecitabine]
- median PFS (mutant group (mutation in NF2, FAT3, LRP1B, PTEN or RAD50), capecitabine-administered group n=62, FIG. 3): 12 months
- risk of mutant group relative to normal group (WT), PFS (mutant group vs WT (no mutation in all five genes), capecitabine-administered patients, FIG. 3): about 5 times

Source: patent US20230235409A1, “METHOD OF PREDICTING THERAPEUTIC RESPONSE AND PROGNOSIS OF METASTATIC BREAST CANCER TO CHEMOTHERAPEUTIC AGENTS, AND TREATING METASTATIC BREAST CANCER” (Samsung Life Public Welfare Foundation, priority 2021, published 2023)
